Some test systems named below: Streptococcus mutans; Leuconostoc lactis; Shigella dysenteriae; Pseudomonas aeruginosa; Bacillus cereus.
Experiment in all cases: ≥ marks a high value that may be exact or a test limit, other limits are often not marked, values filed in µg/mL are converted to µM
The subject of test [1] is Escherichia coli K12 MG1655.
The test system of test [2] is Candida albicans ATCC 2002.
In test [3] the test system is Escherichia coli DH5alpha.
Test [4] has as its system Staphylococcus aureus ATCC 25923.
The test system of test [5] is Escherichia coli ATCC 25922.
Test [6] relates to Pseudomonas aeruginosa CMCCB 10104.
Test [7] deals with Pseudomonas aeruginosa ATCC 27853.
For test [8], the system named is Enterococcus faecalis ATCC 29212.
The test system of test [9] is Staphylococcus aureus ATCC 2592.

Molecules are shown by their SMILES. In brackets after ≈: the same amount, converted by molar mass.

One may read the MIC as the lowest concentration that inhibits growth of the organism. With `CC[C@H](C)[C@H](NC(=O)[C@H](C)N)C(=O)N[C@@H](C)C(=O)N[C@@H](CCCN=C(N)N)C(=O)N[C@H](C(=O)N[C@@H](CCCN=C(N)N)C(=O)N[C@@H](CCCN=C(N)N)C(=O)N[C@@H](CCCN=C(N)N)C(=O)N[C@@H](CC(C)C)C(=O)N[C@@H](CC(C)C)C(=O)N[C@@H](CC(C)C)C(=O)N[C@@H](Cc1ccc(O)cc1)C(=O)N[C@@H](CC(C)C)C(=O)N[C@@H](CC(C)C)C(=O)N[C@@H](C)C(=O)O)[C@@H](C)O` [AIARTRRRLLLYLLA], the MIC in test [1] is ≥ 71.1 µM.
Consider `C[C@H](N)C(=O)N[C@@H](CCC(N)=O)C(=O)N[C@@H](C)C(=O)N[C@@H](C)C(=O)N[C@@H](Cc1cnc[nH]1)C(=O)N[C@@H](CCC(N)=O)C(=O)N[C@@H](C)C(=O)N[C@@H](C)C(=O)N[C@@H](Cc1cnc[nH]1)C(=O)N[C@@H](C)C(=O)N[C@@H](C)C(=O)N[C@@H](Cc1cnc[nH]1)C(=O)N[C@@H](CCC(N)=O)C(=O)N[C@@H](Cc1ccccc1)C(N)=O` [AQAAHQAAHAAHQF], for which, in the test on Streptococcus mutans, the MIC was ≥ 85.7 µM.
For `CC[C@H](C)[C@H](NC(=O)[C@H](Cc1cnc[nH]1)NC(=O)[C@H](C)NC(=O)[C@H](CCSC)NC(=O)[C@H](CC(N)=O)NC(=O)[C@H](CCCCN)NC(=O)[C@H](CCCCN)NC(=O)[C@@H](NC(=O)[C@@H](NC(=O)[C@H](CCCCN)NC(=O)[C@H](C)NC(=O)[C@H](Cc1ccccc1)NC(=O)[C@H](CC(C)C)NC(=O)[C@H](CCCCN)NC(=O)[C@@H]1CCCN1C(=O)[C@H](CC(C)C)NC(=O)[C@@H](N)Cc1ccccc1)[C@@H](C)CC)[C@@H](C)O)C(=O)N[C@@H](CCCN=C(N)N)C(=O)O` [FLPKLFAKITKKNMAHIR], the MIC in [2] is 0.742 µM (≈ 1.6 µg/mL); in test [3], ≥ 50 µM; in test [4], 0.742 µM (≈ 1.6 µg/mL); in [5], 1.48 µM (≈ 3.2 µg/mL); in test [6] it was 1.48 µM (≈ 3.2 µg/mL); in [7], 50 µM (≈ 108 µg/mL).
Take `CC[C@H](C)[C@H](NC(=O)CNC(=O)[C@@H](NC(=O)[C@@H](NC(=O)[C@H](Cc1cnc[nH]1)NC(=O)[C@H](CCCCN)NC(=O)[C@H](C)NC(=O)[C@H](CC(C)C)NC(=O)[C@H](CC(=O)O)NC(=O)[C@H](CC(C)C)NC(=O)[C@H](CC(C)C)NC(=O)CN)C(C)C)[C@@H](C)CC)C(=O)N[C@@H](C)C(=O)N[C@@H](CO)C(=O)N[C@@H](CCCCN)C(=O)N[C@@H](CC(C)C)C(N)=O` [GLLDLAKHVIGIASKL]: the figures for the MIC (in test [8]; in the test with Leuconostoc lactis) were 100 µM (≈ 165 µg/mL) and ≥ 100 µM, respectively.
Regarding `CSCC[C@@H]1NC(=O)[C@H](C(C)C)NC(=O)[C@H](C)NC(=O)[C@H](CCCN=C(N)N)NC(=O)[C@H](Cc2ccccc2)NC(=O)CNC(=O)CNC(=O)[C@H](CCCCN)NC(=O)[C@@H](NC(=O)[C@H](CCCN=C(N)N)NC(=O)[C@@H]2CCCN2C(=O)[C@H](CCSC)NC(=O)[C@H](CO)NC(=O)[C@H](Cc2ccc(O)cc2)NC(=O)[C@H](C)NC(=O)[C@@H](N)CCCCN)CSSC[C@@H](C(=O)N[C@@H](Cc2c[nH]c3ccccc23)C(=O)N[C@@H](CC(C)C)C(N)=O)NC1=O` [KAYSMPRCKGGFRAVMCWL], the MIC was found to be 5.67 µM (≈ 12.5 µg/mL) with Shigella dysenteriae; 22.7 µM (≈ 49.9 µg/mL) in [2]; 11.3 µM (≈ 25 µg/mL) in [9]; 22.7 µM (≈ 49.9 µg/mL) against Pseudomonas aeruginosa; 5.67 µM (≈ 12.5 µg/mL) in [5]; 22.7 µM (≈ 49.9 µg/mL) with Bacillus cereus.
Take `CC(C)C[C@H](NC(=O)[C@H](C)NC(=O)[C@@H](N)CC(N)=O)C(=O)N[C@@H](CO)C(=O)N[C@@H](CO)C(=O)N1CCC[C@H]1C(=O)N[C@@H](CCCN=C(N)N)C(=O)N[C@@H](CC(N)=O)C(=O)N[C@@H](CCCCN)C(=O)N[C@H]1CSSC[C@@H](C(=O)N[C@@H](Cc2ccccc2)C(=O)NCC(=O)O)NC(=O)[C@H](CO)NC(=O)[C@H](CO)NC(=O)[C@H](C)NC(=O)[C@H](CCCN=C(N)N)NC(=O)[C@H](CC(=O)O)NC1=O` [NALSSPRNKCDRASSCFG]: the MIC in the test on Shigella dysenteriae was found to be 1.62 µM (≈ 3.1 µg/mL); in test [2] it was 3.27 µM (≈ 6.24 µg/mL); in test [9], 3.27 µM (≈ 6.24 µg/mL); against Pseudomonas aeruginosa it was 3.27 µM (≈ 6.25 µg/mL); in test [5] it was 26.1 µM (≈ 49.9 µg/mL); in the test with Bacillus cereus, 6.53 µM (≈ 12.5 µg/mL).
For the compound `CC(C)C[C@H](NC(=O)[C@H](Cc1cnc[nH]1)NC(=O)[C@H](CCCCN)NC(=O)[C@H](Cc1ccccc1)NC(=O)[C@H](CCCN=C(N)N)NC(=O)[C@H](CCCCN)NC(=O)[C@H](CC(C)C)NC(=O)[C@H](CC(C)C)NC(=O)[C@@H](N)CCCN=C(N)N)C(=O)N[C@@H](Cc1ccccc1)C(=O)N[C@@H](CCCCN)C(=O)O` [RLLKRFKHLFK], the MIC against Streptococcus mutans was ≥ 42.1 µM.
In the test on Streptococcus mutans, `NC(=O)[C@H](Cc1ccccc1)NC(=O)[C@H](Cc1c[nH]c2ccccc12)NC(=O)[C@H](Cc1c[nH]c2ccccc12)NC(=O)[C@H](Cc1c[nH]c2ccccc12)NC(=O)[C@H](CCCN=C(N)N)NC(=O)[C@H](CCCN=C(N)N)NC(=O)[C@H](CCCN=C(N)N)NC(=O)[C@@H]1CCCN1C(=O)[C@H](CO)NC(=O)CNC(=O)[C@H](CO)NC(=O)[C@@H]1CCCN1C(=O)[C@H](Cc1ccccc1)NC(=O)[C@H](Cc1c[nH]c2ccccc12)NC(=O)[C@H](Cc1c[nH]c2ccccc12)NC(=O)[C@H](Cc1c[nH]c2ccccc12)NC(=O)[C@H](CCCN=C(N)N)NC(=O)[C@H](CCCN=C(N)N)NC(=O)[C@@H](N)CCCN=C(N)N` [RRRWWWFPSGSPRRRWWWF] displayed an MIC of 11.5 µM (≈ 32 µg/mL).
In the test on Streptococcus mutans, `NC(=O)[C@H](Cc1ccccc1)NC(=O)[C@H](Cc1c[nH]c2ccccc12)NC(=O)[C@H](Cc1c[nH]c2ccccc12)NC(=O)[C@H](Cc1c[nH]c2ccccc12)NC(=O)[C@H](CCCN=C(N)N)NC(=O)[C@H](CCCN=C(N)N)NC(=O)[C@H](CCCN=C(N)N)NC(=O)[C@H](Cc1ccccc1)NC(=O)[C@H](Cc1c[nH]c2ccccc12)NC(=O)[C@H](Cc1c[nH]c2ccccc12)NC(=O)[C@H](Cc1c[nH]c2ccccc12)NC(=O)[C@H](CCCN=C(N)N)NC(=O)[C@H](CCCN=C(N)N)NC(=O)[C@@H](N)CCCN=C(N)N` [RRRWWWFRRRWWWF] returned an MIC of 6.76 µM (≈ 16 µg/mL).
For the compound `NC(N)=NCCC[C@H](NC(=O)[C@H](Cc1c[nH]c2ccccc12)NC(=O)[C@H](CCCN=C(N)N)NC(=O)[C@H](Cc1c[nH]c2ccccc12)NC(=O)[C@H](CCCN=C(N)N)NC(=O)[C@H](Cc1c[nH]c2ccccc12)NC(=O)[C@@H](N)CCCN=C(N)N)C(=O)O` [RWRWRWR], the MIC against Streptococcus mutans is 26.6 µM (≈ 32 µg/mL).
Regarding `CC[C@H](C)[C@H](NC(=O)[C@H](C)NC(=O)[C@H](CC(C)C)NC(=O)[C@H](CC(N)=O)NC(=O)[C@H](CCCCN)NC(=O)[C@H](CC(C)C)NC(=O)[C@@H](NC(=O)[C@H](CC(=O)O)NC(=O)[C@H](CC(C)C)NC(=O)[C@H](Cc1ccccc1)NC(=O)[C@@H](N)CO)[C@@H](C)O)C(=O)N[C@@H](CO)C(=O)N[C@@H](C)C(=O)N[C@@H](C)C(=O)N[C@@H](CCCCN)C(=O)NCC(=O)N[C@@H](C)C(=O)NCC(=O)N[C@@H](CCC(N)=O)C(=O)N[C@@H](CO)C(=O)N[C@H](C(=O)N[C@@H](CC(C)C)C(=O)N[C@@H](CO)C(=O)N[C@H](C(=O)N[C@@H](CC(C)C)C(=O)N[C@@H](CO)C(=O)N[C@H]1CSSC[C@@H](C(=O)O)NC(=O)[C@H]([C@@H](C)O)NC(=O)[C@H](CCC(=O)O)NC(=O)[C@H](CO)NC(=O)[C@H](CC(C)C)NC(=O)[C@H](CCCCN)NC1=O)[C@@H](C)O)C(C)C` [SFLDTLKNLAISAAKGAGQSVLSTLSCKLSETC], the MIC in test [2] came out at 1.97 µM (≈ 6.6 µg/mL); in test [4], 1.97 µM (≈ 6.6 µg/mL); in [5], 3.93 µM (≈ 13.2 µg/mL); in [6] it was 1.97 µM (≈ 6.6 µg/mL).
